Measurements from patent publication US9618524B2, “Method, composition, isolation and identification of a plaque particle and related biomarker” (Plaxgen Inc., priority 2012, dated 2017).

Tests used:
Test in all cases: Mass spectroscopy proteomics, semi-quantitative binding affinity of serum proteins (plaqueproteome, Table 2)
Conditions in all cases: higher number = stronger affinity
[1] = biological target: T1, alpha-synuclein plaque particles (Homo sapiens, UniProt P37840)
T1 construct: 140 amino acids polypeptide
Summary of the method: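 AD-subject plasma or serum (800 μL of 50%) mixed with 30 μg preformed alpha-synuclein aggregates for 1 h at 37 °C; Thioflavin S-positive particles isolated by flow sorting. After reduction, acrylamide alkylation and overnight tryptic digestion, serum proteins identified by MS/MS with Sequest and Scaffold.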

[2] = system: High Density cholesterol (Chl Large) plaque particles; set-up: species or system human
Summary of the method: (§1)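 Serum or plasma from atherosclerotic subjects, diluted to 50% in PBS, was incubated with cholesterol aggregates (30 μg per 1 mL reaction) at 37° C for 1 hr. Small and large cholesterol plaque particles were sorted by flow cytometry gating, trypsin-digested and analysed by MS/MS against a human UniProt database.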

[3] = system: Low density cholesterol (Chl small) plaque particles; set-up: species or system human
Summary of the method: as §1

[4] = biological target: T2, Abeta-42 plaque particles (Homo sapiens, UniProt P05067)
T2 construct: Abeta 1-42
Summary of the method: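 AD patient serum or plasma (50% in PBS) was incubated with Abeta-42 aggregates (30 μg) for 1 h at 37 °C, then stained with Thioflavin S for 30 min. Labeled particles were FACS-sorted, trypsin/Lys-C digested overnight and analyzed by MS/MS. Sequest searched human UniProt; Scaffold/Protein Prophet validated the identifications.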

[5] = system: Tau plaque particles; set-up: species or system human
Summary of the method: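 Serum or plasma proteins captured on Thioflavin S-labelled Tau plaque particles (Tau-74, Tau-275 oligomers preformed in PBS at 37° C for 2 h; 1 h co-incubation at 37° C) were isolated by FACS sorting, then tryptically digested and identified by MS/MS (Sequest, human UniProt, strict trypsin).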

Row | Substance | Semi-quantitative analysis of proteins binding to different plaque particles: Synuclein [1] | Semi-quantitative analysis of proteins binding to different plaque particles: Chl Large [2] | Semi-quantitative analysis of proteins binding to different plaque particles: Chl small [3] | Semi-quantitative analysis of proteins binding to different plaque particles: Abeta-42 [4] | Semi-quantitative analysis of proteins binding to different plaque particles: Tau [5]
1 | Ig kappa chain V-I region HK102 | 1 | 1 | 1 | 5 | 1
2 | Ig kappa chain V-I region Mev | 0 | 1 | 1 | 0 | 0
3 | Ig kappa chain V-I region Ni | 2 | 2 | 2 | 5 | 3
4 | Ig kappa chain V-I region Wes | 2 | 2 | 1 | 2 | 2
5 | Ig kappa chain V-III region IARC/BL41 | 0 | 0 | 1 | 0 | 2
6 | Ig kappa chain V-III region NG9 | 2 | 2 | 1 | 0 | 3
7 | Ig kappa chain V-III region POM | 0 | 1 | 1 | 0 | 2
8 | Ig kappa chain V-III region VG | 1 | 1 | 0 | 0 | 0
9 | Ig lambda chain V-IV region Hil | 0 | 0 | 1 | 0 | 1
10 | Ig lambda-2 chain C regions | 8 | 5 | 7 | 9 | 10
11 | Ig lambda-6 chain C region | 6 | 3 | 3 | 5 | 5
12 | Ig lambda-7 chain C region | 4 | 3 | 2 | 2 | 3
13 | Immunoglobulin J chain | 2 | 1 | 1 | 0 | 1
14 | Immunoglobulin lambda-like polypeptide 5 | 8 | 5 | 7 | 9 | 11
15 | Isoform 2 of Annexin A2 | 0 | 0 | 0 | 2 | 0
16 | Isoform 2 of Clusterin | 7 | 6 | 4 | 4 | 5
17 | Isoform 2 of Fibrinogen alpha chain | 0 | 0 | 1 | 0 | 1
18 | Isoform 2 of Protein SET | 0 | 0 | 0 | 4 | 0
19 | Isoform 3 of Fibronectin | 16 | 25 | 19 | 9 | 23
20 | Isoform MBP-1 of Alpha-enolase | 0 | 0 | 0 | 7 | 0
21 | Isoform Short of Heterogeneous nuclear ribonucleoprotein | 0 | 0 | 0 | 4 | 0
